From patent EP0003415A2, “Beta-Lactam compounds, processes for their preparation,compositions containing them and intermediates of use in their preparation” (GLAXO GROUP LIMITED, priority 1978, dated 1979)
In brackets after ≈: the same amount, converted by molar mass.

Tests used:
Test in all cases: Determination of Minimum Inhibitory Concentrations (MIC), agar dilution
Assay type in all cases: cell-based
K. aerogenes 1522E = details: Klebsiella aerogenes, clinical isolate, Oxoid No.1 Nutrient agar, approximately 10^5 colony forming units, read after 18 hours at 37°C
Source text: (§1) Biological testing of two of the compounds of the invention has provided the results shown below; the test compounds are identified by their Example Numbers: 1. Determination of Minimum Inhibitory Concentrations (MIC) Serial two-fold dilutions of freshly prepared test solutions were made into Oxoid No.l Nutrient agar with or without added enrichment and poured into petri […] Plates were inoculated with a multipoint inoculator with inoculum containing approximately 10^5 colony forming units of the organisms shown in the following Tables, all of which organisms are clinical isolates. The MIC, quoted in the Table as μg/ml, was read after 18 hours incubation at 37°C as the lowest concentration which inhibited growth.

Micrococcus Sp 1810E = details: SP1810E, clinical isolate, Oxoid No.1 Nutrient agar, approximately 10^5 colony forming units, read after 18 hours at 37°C
Source text: as §1

Staph.aureus 853E = details: Staphylococcus aureus, clinical isolate, Oxoid No.1 Nutrient agar, approximately 10^5 colony forming units, read after 18 hours at 37°C
Source text: as §1

E. cloacae 1051E = details: Enterobacter cloacae, clinical isolate, Oxoid No.1 Nutrient agar, approximately 10^5 colony forming units, read after 18 hours at 37°C
Source text: as §1

S. marcescens 1324E = details: Serratia marcescens, clinical isolate, Oxoid No.1 Nutrient agar, approximately 10^5 colony forming units, read after 18 hours at 37°C
Source text: as §1

H. influenzae 1184E = details: Haemophilus influenzae, clinical isolate, Oxoid No.1 Nutrient agar, approximately 10^5 colony forming units, read after 18 hours at 37°C
Source text: as §1

E. coli 851E = details: Escherichia coli, clinical isolate, Oxoid No.1 Nutrient agar, approximately 10^5 colony forming units, read after 18 hours at 37°C
Source text: as §1

E. cloacae 1321E = details: Enterobacter cloacae, clinical isolate, Oxoid No.1 Nutrient agar, approximately 10^5 colony forming units, read after 18 hours at 37°C
Source text: as §1

SMILES	MIC (K. aerogenes 1522E)	MIC (Micrococcus Sp 1810E)	MIC (Staph.aureus 853E)	MIC (E. cloacae 1051E)	MIC (S. marcescens 1324E)	MIC (H. influenzae 1184E)	MIC (E. coli 851E)	MIC (E. cloacae 1321E)
NCCC1=C(C(=O)O)N2C(=O)CC2S1 (racemic) [Example 4, (5RS)-2-(2-Aminoethyl)pen-2-em-3-carboxylic acid]	16 µg/mL (≈ 74.7 µM)	0.2 µg/mL (≈ 0.934 µM)	1 µg/mL (≈ 4.67 µM)	8 µg/mL (≈ 37.3 µM)	31 µg/mL (≈ 145 µM)	62 µg/mL (≈ 289 µM)	8 µg/mL (≈ 37.3 µM)	8 µg/mL (≈ 37.3 µM)
NCCCC1=C(C(=O)O)N2C(=O)CC2S1 (racemic) [Example 19, (5RS)-2-[3-Aminopropyl]-pen-2-em-3-carboxylate]	16 µg/mL (≈ 70.1 µM)	0.1 µg/mL (≈ 0.438 µM)	0.5 µg/mL (≈ 2.19 µM)	16 µg/mL (≈ 70.1 µM)	31 µg/mL (≈ 136 µM)	16 µg/mL (≈ 70.1 µM)	8 µg/mL (≈ 35 µM)	8 µg/mL (≈ 35 µM)
